Measured values published in US11535630B2, “Apelin receptor (APJ) agonists and uses thereof” (Research Triangle Institute, priority 2015, dated 2022).
Where two headings read alike, the source gives them in different places.

Tests used:
apelin receptor (APJ) = target: T1, apelin receptor (APJ) (Homo sapiens, UniProt P35414); assay: In vitro apelin agonist activity (methods of Giddings et al., Apelin-13 as positive control); type: cell-based; details: in vitro apelin agonist activity, methods of Giddings et al., Apelin-13 as positive control
T1 sequence (P35414 1-380): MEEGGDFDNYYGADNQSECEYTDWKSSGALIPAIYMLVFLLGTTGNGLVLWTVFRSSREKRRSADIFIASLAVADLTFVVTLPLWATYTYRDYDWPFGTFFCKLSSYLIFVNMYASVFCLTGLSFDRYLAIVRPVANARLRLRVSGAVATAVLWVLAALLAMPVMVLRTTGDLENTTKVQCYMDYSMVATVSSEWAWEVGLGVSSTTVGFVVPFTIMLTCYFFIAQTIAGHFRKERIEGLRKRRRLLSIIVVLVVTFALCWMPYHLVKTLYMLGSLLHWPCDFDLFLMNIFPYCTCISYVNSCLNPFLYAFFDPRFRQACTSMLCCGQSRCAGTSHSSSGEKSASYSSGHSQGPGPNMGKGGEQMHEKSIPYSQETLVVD
Excerpt: Characterization of the Apelin Agonist Activity of the Compounds
1:39-47, the contents of which are hereby incorporated by reference in its entirety. Using the methods described in Giddings et al. and Apelin-13 as a positive control.

male Sprague-Dawley rats = assay: In vivo blood pressure lowering in conscious telemetered rats, oral gavage; set-up: species or system rat; details: for Diastolic blood pressure, 2-5 h mean change from baseline / MAP, 2-5 h mean change from baseline / Systolic blood pressure, 2-5 h mean change from baseline: rat
Description: In Vivo Blood Pressure Lowering Activity of the Compounds
Select compounds were evaluated for their effects upon oral administration on hemodynamic changes, including blood pressure reduction, in conscious, telemetered male Sprague-Dawley rats. Apelin peptides are known to lower blood pressure, e.g., Tatemoto, K., et.al. Regul. Pept. 2001, 99, 87-92.
Animals were approximately 7-9 weeks of age and weighed between 247 g to 263 g just prior to surgery. Dose levels administered were 7.5, 15 or 30 mg/kg, dose volumes were 10 mL/kg, and dose route of administration was oral gavage. Animals were assigned to a crossover experimental treatment schedule as shown below.
Collected data included systolic, diastolic, and mean arterial blood pressure (MAP). Data collection time points were for pre-dose baseline approximately 48 h (prior to treatment 1) or approximately 24 h (prior to treatment 2-4) for 10 sec every 2 min. Data collection post-dose was collected through approximately 24 h (data collected for 10 sec every 2 min) per treatment. Resulting data is presented below as the 2-5 h mean change from baseline in mmHg.

Row | SMILES | EC50 (apelin receptor (APJ); read-out: EC50 (nM) Ave) | further results
1 | Cl.O=C(O)C[C@H](CCN1CCCC(F)(F)C1)NC(=O)c1cc(-c2ccccc2C(F)(F)F)n(C2CCCC2)n1 [compound 423, (3S)-3-({1-cyclopentyl-5-[2-(trifluoromethyl)phenyl]-1H-pyrazol-3-yl}formamido)-5-(3,3-difluoropiperidin-1-yl)pentanoic acid] | 35 nM | Diastolic blood pressure, 2-5 h mean change from baseline (male Sprague-Dawley rats; 7.5 mg/kg oral gavage): −9.9 mmHg; MAP, 2-5 h mean change from baseline (male Sprague-Dawley rats; 7.5 mg/kg oral gavage): −10.0 mmHg; Systolic blood pressure, 2-5 h mean change from baseline (male Sprague-Dawley rats; 7.5 mg/kg oral gavage): −13.0 mmHg; Diastolic blood pressure, 2-5 h mean change from baseline (male Sprague-Dawley rats; 15 mg/kg oral gavage): −7.3 mmHg; MAP, 2-5 h mean change from baseline (male Sprague-Dawley rats; 15 mg/kg oral gavage): −8.4 mmHg; Systolic blood pressure, 2-5 h mean change from baseline (male Sprague-Dawley rats; 15 mg/kg oral gavage): −9.8 mmHg; Diastolic blood pressure, 2-5 h mean change from baseline (male Sprague-Dawley rats; 30 mg/kg oral gavage): −8.3 mmHg; MAP, 2-5 h mean change from baseline (male Sprague-Dawley rats; 30 mg/kg oral gavage): −9.3 mmHg; Systolic blood pressure, 2-5 h mean change from baseline (male Sprague-Dawley rats; 30 mg/kg oral gavage): −10.7 mmHg; Effect on blood pressure (in words) (male Sprague-Dawley rats; oral gavage 7.5, 15 or 30 mg/kg, male Sprague-Dawley rats): mild sustained decrease in blood pressure
2 | O=C(O)C[C@H](CCN1C2CCC1CC(F)(F)C2)NC(=O)c1cc(-c2ccccc2C(F)(F)F)n(C2CCCC2)n1 [compound 602, (3S)-3-({1-cyclopentyl-5-[2-(trifluoromethyl)phenyl]-1H-pyrazol-3-yl}formamido)-5-{3,3-difluoro-8-azabicyclo[3.2.1]octan-8-yl}pentanoic acid] | 346 nM | 
3 | O=C(C[C@H](CCN1CCCCC1)NC(=O)c1cc(-c2ccccc2OC(F)(F)F)n(C2CCCC2)n1)NC1CCC1 [compound 359, (3S)-N-cyclobutyl-3-({1-cyclopentyl-5-[2-(trifluoromethoxy)phenyl]-1H-pyrazol-3-yl]formamido)-5-(piperidin-1-yl)pentanamide] | 271 nM | 
4 | O=C(O)C[C@H](CCNC1CC(F)(F)C1)NC(=O)c1cc(-c2ccccc2C(F)(F)F)n(C2CCCC2)n1 [compound 548, (3S)-3-({1-cyclopentyl-5-[2-(trifluoromethyl)phenyl]-1H-pyrazol-3-yl}formamido)-5-[(3,3-difluorocyclobutyl)amino]pentanoic acid] | 255 nM | 
5 | O=C(O)C[C@H](CCN1CC[C@@H](F)[C@@H](F)C1)NC(=O)c1cc(-c2ccccc2C(F)(F)F)n(C2CCCC2)n1 [compound 610] | 43 nM | 
6 | CC(F)(F)c1ccccc1-c1cc(C(=O)N[C@@H](CCN2C[C@@H](F)[C@@H](F)C2)CC(=O)O)nn1C1CCCC1 [compound 598, (3S)-3-({1-cyclopentyl-5-[2-(1,1-difluoroethyl)phenyl]-1H-pyrazol-3-yl}formamido)-5-[cis-3,4-difluoropyrrolidin-1-yl]pentanoic acid] | 103 nM | 
7 | CC(C)[C@H](NC(=O)c1cc(-c2ccccc2C(F)(F)F)n(C2CCCC2)n1)C(=O)O [compound 528, (2S)-2-({1-cyclopentyl-5-[2-(trifluoromethyl)phenyl]-1H-pyrazol-3-yl}formamido)-3-methylbutanoic acid] | > 10000 nM | 
8 | CC(C)C[C@@H](CC(=O)NCc1ccccc1)NC(=O)c1cc(-c2ccccc2C(F)(F)F)n(C2CCCC2)n1 [compound 441, (3S)-N-benzyl-3-({1-cyclopentyl-5-[2-(trifluoromethyl)phenyl]-1H-pyrazol-3-yl}formamido)-5-methylhexanamide] | > 10000 nM | 
9 | O=C(O)C[C@H](CC(=O)N1CCCCC1)NC(=O)c1cc(-c2ccccc2C(F)(F)F)n(C2CCCC2)n1 [compound 508, (3S)-3-({1-cyclopentyl-5-[2-(trifluoromethyl)phenyl]-1H-pyrazol-3-yl}formamido)-5-oxo-5-(piperidin-1-yl)pentanoic acid] | 475 nM | 
10 | COc1cccc(OC)c1-c1cc(C(=O)N[C@@H](CCN2CCCCC2)Cc2nnn[nH]2)nn1C1CCCC1 [compound 364, 1-cyclopentyl-5-(2,6-dimethoxyphenyl)-N-[(2S)-4-(piperidin-1-yl)-1-(1H-1,2,3,4-tetrazol-5-yl)butan-2-yl]-1H-pyrazole-3-carboxamide] | 235 nM | 
11 | CC(F)(F)c1ccccc1-c1cc(C(=O)N[C@@H](CCN2CCCCC2)CC(=O)NC2CCC2)nn1C1CCCC1 [compound 400, (3S)-N-cyclobutyl-3-({1-cyclopentyl-5-(2-(1,1-difluoroethyl)phenyl]-1H-pyrazol-3-yl]formamido)-5-(piperidin-1-yl)pentanamide] | 46 nM | 
12 | O=C(C[C@H](CCN1CCCC[C@H]1C(F)(F)F)NC(=O)c1cc(-c2ccccc2C(F)(F)F)n(C2CCCC2)n1)NC1CCC1 [compound 496, (3S)-N-cyclobutyl-3-({1-cyclopentyl-5-[2-(trifluoromethyl)phenyl]-1H-pyrazol-3-yl}formamido)-5-[(2S)-2-(trifluoromethyl)piperidin-1-yl]pentanamide] |  | EC50 (apelin receptor (APJ); EC50 (nM) Ave): 30 nM
13 | CN(C(=O)C[C@H](CCN1CCOCC1)NC(=O)c1cc(-c2ccccc2C(F)(F)F)n(C2CCCC2)n1)c1nccs1 [compound 495, (3S)-3-({1-cyclopentyl-5-[2-(trifluoromethyl)phenyl]-1H-pyrazol-3-yl}formamido)-N-methyl-5-(morpholin-4-yl)-N-(1,3-thiazol-2-yl)pentanamide] | 165 nM | 
14 | O=C(O)C[C@H](CCN1CC(F)CC(F)C1)NC(=O)c1cc(-c2ccccc2C(F)(F)F)n(C2CCCC2)n1 (stereo partly drawn) [compound 639, (3S)-3-({1-cyclopentyl-5-[2-(trifluoromethyl)phenyl]-1H-pyrazol-3-yl}formamido)-5-(3,5-difluoropiperidin-1-yl)pentanoic acid] | 40 nM | 
15 | O=C(O)C[C@H](CCN1CCCC1)NC(=O)c1cc(-c2ccccc2C(F)(F)F)n(C2CCCC2)n1 [compound 499, (3S)-3-({1-cyclopentyl-5-[2-(trifluoromethyl)phenyl]-1H-pyrazol-3-yl}formamido)-5-(pyrrolidin-1-yl)pentanoic acid] | 548 nM | 
16 | O=C(O)C[C@H](COc1ccc(F)cc1)NC(=O)c1cc(-c2ccccc2C(F)(F)F)n(C2CCCC2)n1 [compound 545, (3R)-3-({1-cyclopentyl-5-[2-(trifluoromethyl)phenyl]-1H-pyrazol-3-yl}formamido)-4-(4-fluorophenoxy)butanoic acid] | 1230 nM | 
17 | COc1cccc(OC)c1-c1cc(C(=O)N[C@H](CCNC2CCC2)CCN2CCCCC2)nn1C1CCCC1 [compound 398, N-[(3R)-1-(cyclobutylamino)-5-(piperidin-1-yl)pentan-3-yl]-1-cyclopentyl-5-(2,6-dimethoxyphenyl)-1H-pyrazole-3-carboxamide] | > 10000 nM | 
18 | O=C(C[C@H](CCN1CC(F)(F)C1)NC(=O)c1cc(-c2ccccc2C(F)(F)F)n(C2CCCC2)n1)NC1CCC1 [compound 535, (3S)-N-cyclobutyl-3-({1-cyclopentyl-5-[2-(trifluoromethyl)phenyl]-1H-pyrazol-3-yl}formamido)-5-(3,3-difluoroazetidin-1-yl)pentanamide] | 32 nM | 
19 | O=C(O)C[C@H](CCN1CCCCC1=O)NC(=O)c1cc(-c2ccccc2C(F)(F)F)n(C2CCCC2)n1 [compound 587, (3S)-3-({1-cyclopentyl-5-[2-(trifluoromethyl)phenyl]-1H-pyrazol-3-yl}formamido)-5-(2-oxopiperidin-1-yl)pentanoic acid] | 355 nM | 
20 | O=C(O)C[C@H](CCNC(=O)C1CCCC1)NC(=O)c1cc(-c2ccccc2C(F)(F)F)n(C2CCCC2)n1 [compound 538, (3S)-3-({1-cyclopentyl-5-[2-(trifluoromethyl)phenyl]-1H-pyrazol-3-yl}formamido)-5-(cyclopentylformamido)pentanoic acid] | 544 nM | 
21 | CC1(NC(=O)C[C@H](CC(=O)N2CCCCC2)NC(=O)c2cc(-c3ccccc3C(F)(F)F)n(C3CCCC3)n2)COC1 [compound 550, (3R)-3-({1-cyclopentyl-5-[2-(trifluoromethyl)phenyl]-1H-pyrazol-3-yl}formamido)-N-(3-methyloxetan-3-yl)-5-oxo-5-(piperidin-1-yl)pentanamide] | 8680 nM | 
22 | CC(C)C[C@H](NC(=O)c1cc(-c2ccccc2C(F)(F)F)n(C2CCCC2)n1)C(=O)O [compound 527, (2S)-2-({1-cyclopentyl-5-[2-(trifluoromethyl)phenyl]-1H-pyrazol-3-yl}formamido)-4-methylpentanoic acid] | > 10000 nM | 
23 | NS(=O)(=O)C[C@H](CC(=O)N1CCCC(F)(F)C1)NC(=O)c1cc(-c2ccccc2C(F)(F)F)n(C2CCCC2)n1 [compound 540, 1-cyclopentyl-N-[(2S)-4-(3,3-difluoropiperidin-1-yl)-4-oxo-1-sulfamoylbutan-2-yl]-5-[2-(trifluoromethyl)phenyl]-1H-pyrazole-3-carboxamide] | 1380 nM | 
